Results as given in paper PMC4610730 (Journal of medicinal chemistry, 2015).

Legend:
APOBEC3G (A3G) = APOBEC3G (A3G) (Homo sapiens, UniProt Q9HC16); assay: Fluorescence-based ssDNA C-to-U DNA deaminase assay, A3G; type: biochemical; settings: for A3G inhibitory activity: substructures of the decomposition products, data not shown
APOBEC3A (A3A) = APOBEC3A (A3A) (Homo sapiens, UniProt P31941); assay: Fluorescence-based ssDNA C-to-U DNA deaminase assay, A3A; type: biochemical
[1] = LC-MS analysis of aged DMSO stocks; type: physicochemical; settings: DMSO stock, LC-MS on day 38; for Decomposition product observed: carboxylic acid (analogous to 6) / Decomposition product observed: enone (analogous to 8) / Decomposition product observed: lactam (analogous to 5): Table 1; for Decomposition product observed: bis-enone (equivalent to 8) / Decomposition product observed: carboxylic acid (equivalent to 6) / Decomposition product observed: lactam (equivalent to 5): Table 2
[2] = Aging of 1 under photochemical conditions; type: physicochemical; settings: 10 mM DMSO, visible light 300 W, N2 atmosphere (balloon, 1 atm), 9 h, no sensitizer
[3] = Aging of DMSO stocks of 1 under varied conditions; type: physicochemical
[4] = Storage stability of isolated decomposition products; type: physicochemical; settings: significant periods of time
[5] = freshly synthesized and solubilized, day 0, dose response up to 200 μM

APOBEC3G (A3G), sequence (Q9HC16 whole entry): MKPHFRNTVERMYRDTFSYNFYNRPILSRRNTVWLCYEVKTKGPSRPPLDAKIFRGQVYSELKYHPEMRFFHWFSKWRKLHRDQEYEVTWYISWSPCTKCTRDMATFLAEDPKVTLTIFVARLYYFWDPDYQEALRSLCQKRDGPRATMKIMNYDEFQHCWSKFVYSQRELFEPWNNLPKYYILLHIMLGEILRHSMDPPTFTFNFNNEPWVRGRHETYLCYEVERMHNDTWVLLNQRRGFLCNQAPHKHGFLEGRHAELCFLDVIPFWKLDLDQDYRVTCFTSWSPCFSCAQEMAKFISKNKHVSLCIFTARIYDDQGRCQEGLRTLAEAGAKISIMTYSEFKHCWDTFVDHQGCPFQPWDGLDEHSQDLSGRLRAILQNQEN
APOBEC3A (A3A), sequence (P31941 whole entry): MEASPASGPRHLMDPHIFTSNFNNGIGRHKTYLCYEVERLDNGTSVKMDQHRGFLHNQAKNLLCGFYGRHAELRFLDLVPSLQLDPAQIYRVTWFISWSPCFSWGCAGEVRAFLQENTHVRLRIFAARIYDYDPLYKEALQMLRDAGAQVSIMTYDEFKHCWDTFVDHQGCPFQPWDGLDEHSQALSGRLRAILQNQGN

SMILES	Decomposition product observed: carboxylic acid (analogous to 6) [1]	Decomposition product observed: enone (analogous to 8) [1]	Decomposition product observed: lactam (analogous to 5) [1]	Decomposition product observed: bis-enone (equivalent to 8) [1]	Decomposition product observed: carboxylic acid (equivalent to 6) [1]	Decomposition product observed: lactam (equivalent to 5) [1]	also measured
O=C(O)c1cc(O)nc2ccccc12 [2-Hydroxyquinonline-4-carboxylic acid]							A3G inhibitory activity (APOBEC3G (A3G)): inactive
Cc1ccc(-c2cc(C(=O)Nc3nnc(-c4ccncc4)s3)c3ccccc3n2)o1 [compound 1, 2-(5-Methylfuran-2-yl)-N-(5-(pyridin-4-yl)-1,3,4-thiadiazol-2-yl)quinoline-4-carboxamide]	+ 378.1 (378.1)	+ 430.1 (430.1)	+ 350.1 (350.1)	+ 430.1 (430.1)	+ 378.1 (378.1)	+ 350.1 (350.1)	inhibitory activity against A3A (APOBEC3A (A3A); aged DMSO stock of synthesized compound): never recovered; A3A inhibition (APOBEC3A (A3A); [5]): no inhibition; A3G inhibition (APOBEC3G (A3G); [5]): no inhibition; decomposition under irradiation [2]: virtually no decomposition; decomposition of DMSO stock ([3]; 10 mM DMSO stock aged in the dark): no decomposition; decomposition of DMSO stock ([3]; 10 mM DMSO stock aged in the presence of NaN3): no decomposition; decomposition of DMSO stock ([3]; 10 mM DMSO stock aged under inert conditions (N2)): drastically reduced decomposition; rate of decomposition versus storage temperature ([3]; DMSO stock stored at -20 °C vs. rt vs. 37 °C, data not shown): same rate regardless of the temperature
Nc1nnc(-c2ccncc2)s1 [compound 4, 5-(pyridin-4-yl)-1,3,4-thiadiazol-2-amine]							A3G inhibitory activity (APOBEC3G (A3G)): inactive
CC(=O)/C=C\C(=O)c1cc(C(=O)Nc2nnc(-c3ccncc3)s2)c2ccccc2n1 [compound 8, (Z)-2-(4-oxopent-2-enoyl)-N-(5-(pyridin-4-yl)-1,3,4-thiadiazol-2-yl)quinoline-4-carboxamide]							stability for storage in organic solvents [4]: not stable
Cc1ccc(-c2cc(C(=O)O)c3ccccc3n2)o1 [compound 12, 2-(5-Methylfuran-2-yl)quinoline-4-carboxylic acid]	+ 218.1 (218.1)	+ 270.1 (270.1)	+ 190.1 (190.1)				
O=C(Nc1nnc(-c2ccncc2)s1)c1cc(-c2ccco2)nc2ccccc12 [compound 13]	+ 378.2 (378.1)	-	+ 350.2 (350.1)				
O=C(O)c1cc(-c2ccco2)nc2ccccc12 [compound 14]	-	-	+ 190.2 (190.1)				
Cc1ccc(-c2cc(C(=O)Nc3nnc(-c4ccncc4)s3)ccn2)o1 [compound 15]	+ 328.2 (328.0)	+ 380.2 (380.1)	-				
Cc1ccc(-c2cc(C(=O)O)ccn2)o1 [compound 16]	-	+ 220.1 (220.1)	-				
O=C(Nc1nnc(-c2ccncc2)s1)c1ccnc(-c2ccco2)c1 [compound 17]	-	-	-				
O=C(O)c1ccnc(-c2ccco2)c1 [compound 18]	-	-	-				
Cc1ccc(-c2cc(C(=O)Nc3nnc(-c4ccncc4)s3)c3ccccc3c2)o1 [compound 19]	+ 377.2 (377.1)	+ 429.2 (429.1)	-				
Cc1ccc(-c2cc(C(=O)O)c3ccccc3c2)o1 [compound 20]	-	+ 269.2 (269.1)	-				
O=C(Nc1nnc(-c2ccncc2)s1)c1cc(-c2ccco2)cc2ccccc12 [compound 21]	+ 377.2 (377.1)	+ 415.1 (415.1)	-				
O=C(O)c1cc(-c2ccco2)cc2ccccc12 [compound 22]	-	+ 254.1 (254.1)	-				
Cc1ccc(-c2ccc3ccccc3n2)o1 [compound 23]	-	+ 226.2 (226.2)	-				
c1coc(-c2ccc3ccccc3n2)c1 [compound 24]	-	-	-				
Cc1ccc(-c2cc(C(=O)NC(C)C3CCCO3)c3ccccc3n2)o1 (stereo not drawn) [compound 25]				+ 367.2 (367.2)	+ 315.1 (315.1)	+ 287.1 (287.1)	
Cc1cccc(NC(=O)c2cc(-c3ccc(C)o3)nc3ccccc23)n1 [compound 26]				+ 360.2 (360.1)	+ 308.1 (308.1)	+ 280.1 (280.1)	
Cc1ccc(-c2cc(C(=O)NC3CCCCC3)c3ccccc3n2)o1 [compound 27]				+ 351.2 (351.2)	+ 299.1 (299.1)	+ 271.1 (271.1)	
COc1ccc(CCNC(=O)c2cc(-c3ccc(C)o3)nc3ccccc23)cc1 [compound 28]				+ 403.2 (403.2)	+ 351.2 (351.1)	+ 323.1 (323.1)	
Cc1ccc(-c2cc(C(=O)NCc3ccc4c(c3)OCO4)c3ccccc3n2)o1 [compound 29]				+ 403.1 (403.1)	+ 351.2 (351.1)	+ 323.1 (323.1)	
O=C(NNC(=O)c1cc(-c2ccco2)nc2ccccc12)NC1CCCCC1 [compound 30]				-	+ 357.1 (357.1)	+ 329.1 (329.1)	
Cc1ccc(-c2cc(C(=O)N3CCN(S(C)(=O)=O)CC3)c3ccccc3n2)o1 [compound 31]				+ 416.1 (416.1)	+ 364.1 (364.1)	+ 336.1 (336.1)	
COC(=O)c1cc(NC(=O)c2cc(-c3ccc(C)o3)nc3ccccc23)cc(C(=O)OC)c1 [compound 32]				+ 461.1 (461.1)	+ 409.1 (409.1)	+ 381.1 (381.1)	
O=C(O)c1cc(C(=O)O)c2ccccc2n1 [quinoline-2,4-carboxylic acid]							A3G inhibitory activity (APOBEC3G (A3G)): inactive
